Experimental findings from PubChem BioAssay (NCI) are described below.

Among the test systems are DMS 273 small cell lung; LXFL 529 NSCLC; MDA-N; HOP-18 NSCLC; RXF-631 renal; SNB-78 CNS; XF 498 CNS.
Common to all, as to assay: growth of human tumour cells (NCI), 48 h

Molecules are shown by their SMILES. ≈ marks a conversion by molar mass, not a printed value.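 Assay format: 96-well plates, 48-hour exposure. Here, GI50 denotes the concentration required for 50% inhibition of growth. Definition used: TGI = concentration required for complete inhibition of growth.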 A value given as a limit tells only on which side of the number the result lay.

Regarding `O=C(c1ccccc1)c1c(CC(O)c2ccncc2)n(C(=O)c2ccccc2)c2ccccc12` (configuration not stated), the TGI in the assay on DMS 273 small cell lung stood at 37.1 µM; in the assay on LXFL 529 NSCLC, 45.9 µM.

The molecule `O=C(O)c1cc(CCc2cc(O)ccc2O)ccc1O` came in with a TGI in the assay on MDA-N of 27.1 µM.

`Oc1cc(-n2cccn2)c(O)cc1-n1cccn1`: the TGI is greater than 58.2 µM in the assay on DMS 273 small cell lung; greater than 100 µM with HOP-18 NSCLC; 34.7 µM in the assay on LXFL 529 NSCLC; 33.5 µM with MDA-N; greater than 100 µM in the assay on RXF-631 renal; greater than 68.7 µM in the assay with SNB-78 CNS. In the assay on XF 498 CNS, this molecule showed a TGI of 32.7 µM.

With `O=C1OC(=O)c2c1c(-c1ccccc1)nc1ccccc21`, the TGI in the assay on DMS 273 small cell lung, in the assay on LXFL 529 NSCLC, in the assay on RXF-631 renal, with SNB-78 CNS and in the assay on XF 498 CNS was greater than 100 µM each time.

With `Cc1cc(C)c(C2CNCc3cc4c(cc32)CNCC4c2c(C)cc(C)cc2C)c(C)c1` (configuration not stated), in the assay on MDA-N, the GI50 is 2.05 µg/mL (≈ 4.83 µM) and the TGI amounted to 4.3 µg/mL.

For `O=C(NCCNCCO)c1cccc2ccc(-c3ccccc3)nc12`, the TGI amounted to 14.1 µM in the assay on DMS 273 small cell lung, 45.8 µM with HOP-18 NSCLC, 12.1 µM in the assay with RXF-631 renal and 29.1 µM in the assay on SNB-78 CNS.

Regarding `CC(C)(C)c1cc2nc(c1)C(C(F)(F)F)(C(F)(F)F)OB(Br)OC2(C(F)(F)F)C(F)(F)F`, the TGI is 0.107 µM in the assay with DMS 273 small cell lung; 13.9 µM with LXFL 529 NSCLC; 5.35 µM in the assay with RXF-631 renal; 1.56 µM in the assay with SNB-78 CNS; 6.91 µM in the assay with XF 498 CNS.

In the case of `N#CC1(C#N)C(c2ccccc2)C=CC12OCCCO2` (configuration not stated), the TGI was greater than 100 µM with DMS 273 small cell lung; greater than 100 µM in the assay with HOP-18 NSCLC; 95.2 µM in the assay with LXFL 529 NSCLC; greater than 100 µM in the assay with RXF-631 renal; greater than 100 µM in the assay with SNB-78 CNS; greater than 100 µM in the assay on XF 498 CNS.

In the assay on MDA-N, `Clc1ccc(C2ON=C(c3ccccc3)N2C23CC4CC(CC(C4)C2)C3)cc1` (configuration not stated) had a TGI greater than 10 µM.

With `CC1=C(CC2C(=O)N(c3ccccc3)S(=O)(=O)NC2C)C(=O)N(c2ccccc2)S(=O)(=O)N1C` (configuration not stated), the TGI in the assay with DMS 273 small cell lung, in the assay with LXFL 529 NSCLC, in the assay with RXF-631 renal, in the assay on SNB-78 CNS and with XF 498 CNS was greater than 100 µM each time.

`Fc1cccc(F)c1C(Nc1nncs1)Nc1nncs1` registered a TGI in the assay on MDA-N greater than 100 µM.

Turning to `CCOc1ccc(NC(=O)CCc2nnc(SC)o2)cc1`, the TGI in the assay on DMS 273 small cell lung, in the assay on HOP-18 NSCLC, in the assay with LXFL 529 NSCLC and in the assay with SNB-78 CNS was greater than 100 µM throughout.

In the case of `Cc1cc2c(c(C(N)=O)c1C)-c1cc(Cl)cc(Cl)c1C2=O`, the TGI in the assay with DMS 273 small cell lung, in the assay on HOP-18 NSCLC, with LXFL 529 NSCLC and in the assay on SNB-78 CNS was greater than 100 µM each time.

As for `Cc1cccc(NC(=O)/C(=N\N)C(c2cnc3ccc([N+](=O)[O-])cc3n2)[N+](=O)[O-])c1C` (configuration not stated), the TGI in the assay on DMS 273 small cell lung, with HOP-18 NSCLC, in the assay on LXFL 529 NSCLC, in the assay on RXF-631 renal and in the assay on XF 498 CNS was greater than 100 µM throughout.

As to `COc1ccc(-c2[nH]c3ccccc3c2CCNS(=O)(=O)c2ccc(C)cc2)cc1`, the TGI in the assay with DMS 273 small cell lung, in the assay with HOP-18 NSCLC, in the assay on LXFL 529 NSCLC, with RXF-631 renal, in the assay on SNB-78 CNS and with XF 498 CNS was greater than 10 µM each time.

For the molecule `O=C(/C=C/c1ccc(Cl)c(Cl)c1)c1cccc2ccccc12`, the TGI is 14.7 µM in the assay with DMS 273 small cell lung; 31.1 µM with HOP-18 NSCLC; 6.64 µM with LXFL 529 NSCLC; 33.1 µM in the assay with RXF-631 renal; 26.8 µM with SNB-78 CNS.

On to `CN=C1OC2(c3ccccc3)C3=C(OC(=NC)N2C)C(=O)OC3(c2ccccc2)N1C` (configuration not stated), for which the TGI in the assay with MDA-N is greater than 100 µM.

On to `COc1ccc(NC(=O)C(=O)/C=C(\O)c2ccccc2)cc1`, for which, in the assay on MDA-N, the TGI was greater than 10 µM.

In the case of `CNNC(=NS(=O)(=O)c1cc(C#N)c(NNC)cc1S)NNC`, in the assay on MDA-N, the TGI was greater than 10 µM.

`N#CCN1C(=O)c2cc([N+](=O)[O-])cc3cc([N+](=O)[O-])cc(c23)C1=O`: the TGI was greater than 100 µM in the assay with DMS 273 small cell lung; greater than 100 µM with HOP-18 NSCLC; greater than 50.6 µM in the assay with LXFL 529 NSCLC; greater than 60.6 µM with RXF-631 renal; greater than 58 µM in the assay on SNB-78 CNS; 25 µM with XF 498 CNS.

As for `ClC1=C(Cl)C(Cl)(Cl)c2c3c(c4c(c21)C(Cl)(Cl)C(Cl)=C4Cl)C(Cl)(Cl)C(Cl)=C3Cl`, the TGI with DMS 273 small cell lung, in the assay on LXFL 529 NSCLC and in the assay on XF 498 CNS was greater than 100 µM each time.

As for `c1cc(-c2cn3c(n2)SCC3)ccn1`, the TGI in the assay on DMS 273 small cell lung was 93.1 µM; with HOP-18 NSCLC it was greater than 100 µM; in the assay with LXFL 529 NSCLC it was greater than 100 µM; with SNB-78 CNS, greater than 100 µM; in the assay on XF 498 CNS it was greater than 100 µM.

Turning to `CCOC(=O)/C(I)=C/c1cc(OC)c(OC)c(OC)c1`, the TGI in the assay with DMS 273 small cell lung was 22.7 µM; in the assay on HOP-18 NSCLC, 24 µM; in the assay on LXFL 529 NSCLC, 26.8 µM; with SNB-78 CNS it was greater than 100 µM; with XF 498 CNS, 27.5 µM.

For `COc1ccc(-c2cc(=O)c3c(O)cccc3o2)c(OC)c1OC`, the TGI in the assay on DMS 273 small cell lung, with LXFL 529 NSCLC, with RXF-631 renal, in the assay on SNB-78 CNS and with XF 498 CNS was greater than 100 µM in each case.

Turning to `O=C(O)CCNS(=O)(=O)c1ccc([N+](=O)[O-])cc1`, the TGI in the assay on DMS 273 small cell lung, with HOP-18 NSCLC, with LXFL 529 NSCLC, in the assay on RXF-631 renal and in the assay on XF 498 CNS was greater than 100 µM throughout.

On to `Cc1ccccc1-n1c(N)c(-c2nc3ccccc3[nH]2)sc1=S`, for which the TGI with DMS 273 small cell lung turned out to be 35 µM; in the assay on HOP-18 NSCLC, 72.8 µM; in the assay with LXFL 529 NSCLC it was 50.4 µM; in the assay on RXF-631 renal it was 49.1 µM; in the assay with SNB-78 CNS, 74.8 µM.

As to `COc1ccc(OC(=O)CC2Cc3cc(OC)c(OC)c(OC)c3-c3ccc(SC)c(=O)cc32)cc1` (configuration not stated), the TGI in the assay with DMS 273 small cell lung was greater than 100 µM; with LXFL 529 NSCLC, 11.3 µM; in the assay with RXF-631 renal, greater than 100 µM; with XF 498 CNS, 7.8 µM.

With `COc1cc(C2(C)SCCCS2)cc(OC)c1OC`, the TGI in the assay with DMS 273 small cell lung, in the assay on HOP-18 NSCLC, with LXFL 529 NSCLC and in the assay on RXF-631 renal was greater than 100 µM in each case.

On to `CC1=C(C(=O)Nc2ccc(Cl)c(Cl)c2)C(c2ccc([N+](=O)[O-])cc2)C(C(=O)Nc2ccc(Cl)c(Cl)c2)=C(C)N1`, for which the TGI in the assay on DMS 273 small cell lung is 9.14 µM; in the assay on HOP-18 NSCLC, 19.2 µM; with LXFL 529 NSCLC, 11.8 µM; with RXF-631 renal it was 6.69 µM; in the assay with SNB-78 CNS it was 26.7 µM; with XF 498 CNS, 4.38 µM.

For `C1CSCCSCCCSCCSCCCSCCSCCCSCCSC1`, the TGI in the assay on MDA-N is greater than 100 µM.

For the molecule `N#CNc1nc(N)c(-c2ccc(Cl)cc2)c(C(=O)Nc2nccs2)n1`, the TGI in the assay on DMS 273 small cell lung, in the assay with HOP-18 NSCLC, with LXFL 529 NSCLC, with SNB-78 CNS and in the assay on XF 498 CNS was greater than 100 µM throughout.

Consider `O=C(Cc1nc2ccccc2o1)C(=O)Nc1cccc(C(F)(F)F)c1`, for which the TGI in the assay with DMS 273 small cell lung, in the assay on HOP-18 NSCLC, in the assay on LXFL 529 NSCLC, in the assay on RXF-631 renal and in the assay on SNB-78 CNS was greater than 100 µM each time.

In the assay on MDA-N, `NNc1nnc(-c2nnc(NN)o2)o1` displayed a TGI greater than 10 µM.

`CCCC(S(=O)(=O)c1ccccc1)S(=O)(=O)c1ccccc1`: the TGI in the assay with DMS 273 small cell lung, with LXFL 529 NSCLC, with RXF-631 renal, in the assay with SNB-78 CNS and in the assay with XF 498 CNS was greater than 100 µM in each case.

Turning to `COc1ccc(C(=O)/C=C/c2ccc(OCC#N)cc2)cc1`, the TGI in the assay on MDA-N is greater than 10 µM.

In the case of `CC1=NN(c2ccccc2)C(=O)/C1=C\c1ccc([N+](=O)[O-])cc1`, the TGI with DMS 273 small cell lung is 62.7 µM; in the assay with LXFL 529 NSCLC it was greater than 100 µM; in the assay with RXF-631 renal it was 77.4 µM; in the assay on SNB-78 CNS it was greater than 100 µM; with XF 498 CNS, 44.6 µM.

`Cc1ccc(NC(=O)C(=O)C(C(=O)/C=C/c2ccccc2)C2OC(=O)c3ccccc32)c(C)c1` (configuration not stated): the TGI with LXFL 529 NSCLC, in the assay with RXF-631 renal, with SNB-78 CNS and in the assay with XF 498 CNS was greater than 100 µM in each case.

`c1ccc2c(c1)CCc1c-2n[nH]c1-c1[nH]nc2c1CCc1ccccc1-2`: the TGI in the assay with DMS 273 small cell lung, in the assay on HOP-18 NSCLC, in the assay on LXFL 529 NSCLC, with RXF-631 renal, in the assay with SNB-78 CNS and in the assay with XF 498 CNS was greater than 100 µM in each case.
